From US10166218B2, “3-(1H-indol-2-yl)-1H-pyrazolo[3,4-C]pyridines and therapeutic uses thereof” (Samumed, LLC, priority 2015, dated 2019)

Experiments:
Assay type in all cases: cell-based
[1] = system: primary human fibroblasts derived from IPF patients (LL29 cells) treated with TGF-β1; α-smooth muscle actin (αSMA); assay: Inhibition of the fibrotic process: αSMA staining in TGF-β1 treated primary human fibroblasts from IPF patients (LL29 cells); details: Fibroblast, 96 h, TGF-β1 20 ng/mL, 4 days, % cells positive for αSMA
From the text: Representative compounds were screened using primary human fibroblasts (derived from IPF patients) treated with TGF-β1 to determine their ability to inhibit the fibrotic process.
Primary human fibroblasts derived from IPF patients (LL29 cells) [^1Xiaoqiu Liu, et. al., “Fibrotic Lung Fibroblasts Show Blunted Inhibition by cAMP Due to Deficient cAMP Response Element-Binding Protein Phosphorylation”, Journal of Pharmacology and Experimental Therapeutics (2005), 315(2), 678-687; ^2Watts, K. L., et. al., “RhoA signaling modulates cyclin D1 expression in human lung fibroblasts; implications for idiopathic pulmonary fibrosis”, Respiratory Research (2006), 7(1), 88] were obtained from American Type Culture Collection (ATCC) and expanded in F12 medium supplemented with 15% Fetal Bovine Serum and Penicillin/Streptomycin.
Each compound was dissolved in DMSO as a 10 mM stock and used to prepare compound source plates. Serial dilution (1:2, 11-point dose-response curves from 10 μM to 1.87 nM) and compound transfer was performed using the ECHO 550 (Labcyte, Sunnyvale, Calif.) into 384-well clear bottom assay plates (Greiner Bio-One) with appropriate DMSO backfill for a final DMSO concentration of 0.1%. LL29 cells are plated at 1,500 cells/well in 80 μL/well F12 medium supplemented with 1% Fetal Bovine Serum. One hour after addition of the cells, TGF-β1 (Peprotech; 20 ng/mL) was added to the plates to induce fibrosis (ref. 1 and 2 above). Wells treated with TGF-β1 and containing DMSO were used as controls. Cells were incubated at 37° C. and 5% CO2 for 4 days. Following incubation for 4 days, SYTOX green nucleic acid stain (Life Technologies [Thermo Fisher Scientific]) was added to the wells at a final concentration of 1 μM and incubated at room temperature for 30 min. Cells were then fixed using 4% formaldehyde (Electron Microscopy Sciences), washed 3 times with PBS followed by blocking and permeabilization using 3% Bovine Serum Albumin (BSA; Sigma) and 0.3% Triton X-100 (Sigma) in PBS. Cells were then stained with antibody specific to α-smooth muscle actin (αSMA; Abcam) (ref. 1 and 2 above) in 3% Bovine Serum Albumin (BSA; Sigma) and 0.3% Triton X-100 (Sigma) in PBS, and incubated overnight at 4° C. Cells were then washed 3 times with PBS, followed by incubation with Alexa Flor-647 conjugated secondary antibody (Life Technologies [Thermo Fisher Scientific]) and DAPI at room temperature for 1 hour. Cells were then washed 3 times with PBS and plates were sealed for imaging. αSMA staining was imaged by excitation at 630 nm and emission at 665 nm and quantified using the Compartmental Analysis program on the CellInsight CX5 (Thermo Scientific). Dead or apoptotic cells were excluded from analysis based on positive SYTOX green staining. % of total cells positive for αSMA were counted in each well and normalized to the average of 11 wells treated with TGF-β1 on the same plate using Dotmatics' Studies Software. The normalized averages (fold change over untreated) of 3 replicate wells for each compound concentration were used to create dose-responses curves and EC50 values were calculated using non-linear regression curve fit in the Dotmatics' Studies Software. For EC50 of >10 μM, the percent inhibition at 10 μM is provided.

IL-6 (THP-1 cells) = assay: Inhibition of IL-6 in LPS-stimulated THP-1 human monocyte cells (HTRF); details: inhibition of IL-6 in LPS-stimulated THP-1 cells, HTRF, 10-point dose-response starting from 10 μM
Description: Human monocyte cell line (THP-1 cells; Catalog # TIB-202, ATCC, Manassas, Va.) were cultured in Roswell Park Memorial Institute (RPMI) 1640 Medium (Catalog #21870-100, Buffalo, N.Y.) with 1% L-glutamine, 1% HEPES, 1% Sodium Pyruvate, 2% Sodium Bicarbonate supplemented with 100 units/mL penicillin, 50 μg/mL streptomycin, 2-mercaptoethanol (0.05 mM) [basal medium] and 10% fetal bovine serum (Catalog #16140089, Life Technologies, Carlsbad, Calif.) at 37° C. and 5% CO2.
THP-1 cells were cultured in basal media with 1% FBS for 24 hours before the start of the assay. Each compound was dissolved in DMSO as a 10 mM stock and used to prepare compound source plates. Serial dilution (1:3, 10-point dose-response curves starting from 10 μM) and compound transfer was performed using the ECHO 550 (Labcyte, Sunnyvale, Calif.) into 384-well white low volume assay plates (Greiner Bio-One) with appropriate DMSO backfill for a final DMSO concentration of 0.1%. THP-1 cells were plated at 5000 cells/well in the 384-well plates and incubated at 37° C. for 2 h. 500 ng/mL of LPS was added after 2 hours and cells were incubated for another 22 hours at 37° C. Plates were spun in a centrifuge for 1 minute at […] and a mixture of anti-IL6 XL665, and anti-IL6 Cryptate diluted in reconstitution buffer (Cisbio Inc.) was added to each well. Following incubation for 3 hrs at room temperature, Homogeneous Time-Resolved Fluorescence (HTRF) was measured using the Envision (Perkin Elmer) at 665 nm and […]. The ratio of fluorescence at 665 nm to 620 nm was used as a readout for IL6 quantification. All samples were processed in duplicate. Readings were normalized to DMSO treated cells and normalized activities were utilized for EC50 calculations using the dose-response log (inhibitor) vs. response-variable slope (four parameters) nonlinear regression feature available in GraphPad Prism 5.0 (or Dotmatics). For EC50 of >10 μM, the percent inhibition at 10 μM is provided.

[2] = system: Wnt activity (Sp5-Luc reporter, TCF/LEF binding sites) in SW480 colon carcinoma cells; assay: Screening assay for Wnt activity: Sp5-Luc reporter gene assay in stably transduced SW480 cells; details: Homo sapiens, overnight incubation
From the text: The screening assay for Wnt activity is described as follows. Reporter cell lines can be generated by stably transducing cancer cell lines (e.g., colon cancer) or primary cells (e.g., IEC-6 intestinal cells) with a lentiviral construct that includes a Wnt-responsive promoter driving expression of the firefly luciferase gene.
SW480 colon carcinoma cells were transduced with a lentiviral vector expressing luciferase with a human Sp5 promoter consisting of a sequence of eight TCF/LEF binding sites. SW480 cells stably expressing the Sp5-Luc reporter gene and a hygromycin resistance gene were selected by treatment with 150 μg/mL of hygromycin for 7 days. These stably transduced SW480 cells were expanded in cell culture and used for all further screening activities. Each compound was dissolved in DMSO as a 10 mM stock and used to prepare compound source plates. Serial dilution (1:3, 10-point dose-response curves starting from 10 μM) and compound transfer was performed using the ECHO 550 (Labcyte, Sunnyvale, Calif.) into 384-well white solid bottom assay plates (Greiner Bio-One) with appropriate DMSO backfill for a final DMSO concentration of 0.1%. For Sp5-Luc reporter gene assays, the cells were plated at 4,000 cells/well in 384-well plates with medium containing 1% fetal bovine serum and incubated overnight at 37° C. and 5% CO2. Following incubation, 20 μl of BrightGlo luminescence reagent (Promega) was added to each well of the 384-well assay plates. The plates were placed on an orbital shaker for 2 min and then luminescence was quantified using the Envision (Perkin Elmer) plate reader. Readings were normalized to DMSO only treated cells, and normalized activities were utilized for EC50 calculations using the dose-response log (inhibitor) vs. response-variable slope (four parameters) nonlinear regression feature available in GraphPad Prism 5.0 (or Dotmatics). For EC50 of >10 μM, the percent inhibition at 10 μM is provided.

SW480 colon cancer cells = assay: Cell viability assay (CellTiter-Blue) in SW480 colon cancer cells; details: Homo sapiens, 96 h, four days, CellTiter-Blue
Description: Representative compounds were screened using the following assay procedure to assess the effect on cell viability as described below.
Each compound was dissolved in DMSO as a 10 mM stock and used to prepare compound source plates. Serial dilution (1:3, 8-point dose-response curves from 10 μM to 0.0045 μM) and compound transfer was performed using the ECHO 550 (Labcyte, Sunnyvale, Calif.) into 96-well clear bottom, black-walled plates (Corning-Costar).
Approximately 2×10^3 SW480 colon cancer cells were seeded into each well and allowed to incubate in the presence or absence of compound for four days at 37° C./5% CO2. Eight replicates of DMSO-treated cells served as controls and cells treated with compound were performed in duplicate.
After incubation, 20 μL of CellTiter-Blue (Promega) was added to each well allowed to incubate for approximately 3 hours. This reagent was a buffered solution which contains resazurin, metabolically active cells were able to reduce rezarurin (blue) into resorufin (pink) which was highly fluorescent. This measured fluorescence was used as a readout for cell viability.
After incubation, the plates were read at Ex 560 nm Em 590 nm (Cytation 3, BioTek). Dose-response curves were generated and EC50 concentration values were calculated using non-linear regression curve fit in the GraphPad Prism (San Diego, Calif.) or Dotmatics' Studies Software (Bishops Stortford, UK). For EC50 of >10 μM, the percent inhibition at 10 μM is provided.

Row | SMILES | EC50 (IL-6 (THP-1 cells)) | EC50 [2] | EC50 (SW480 colon cancer cells) | EC50 [1]
1 | O=C(Cc1ccccc1)Nc1cncc(-c2cc3c(-c4cc5c(-c6ccccn6)cccc5[nH]4)n[nH]c3cn2)c1 [Compound 150, 2-Phenyl-N-(5-(3-(4-(pyridin-2-yl)-1H-indol-2-yl)-1H-pyrazolo[3,4-c]pyridin-5-yl)pyridin-3-yl)acetamide] | 2020 nM | 1420 nM | 2970 nM | 531 nM
2 | CN1CCN(c2cccc3[nH]c(-c4n[nH]c5cnc(-c6cncnc6)cc45)cc23)CC1 [Compound 251, 3-(4-(4-Methylpiperazin-1-yl)-1H-indol-2-yl)-5-(pyrimidin-5-yl)-1H-pyrazolo[3,4-c]pyridine] | 1080 nM | 1520 nM | 1690 nM | 1690 nM
3 | CN1CCN(c2cccc3[nH]c(-c4n[nH]c5cnc(-c6cncc(N)c6)cc45)cc23)CC1 [Compound 227, 5-(3-(4-(4-Methylpiperazin-1-yl)-H-indol-2-yl)-1H-pyrazolo[3,4-c]pyridin-5-yl)pyridin-3-amine] | 1080 nM | 1160 nM | 2610 nM | 1910 nM
4 | Cc1ncc(-c2cc3c(-c4cc5ccccc5[nH]4)n[nH]c3cn2)n1C [Compound 681, 5-(1,2-Dimethyl-1H-imidazol-5-yl)-3-(1H-indol-2-yl)-1H-pyrazolo[3,4-c]pyridine] | 954 nM | 754 nM | 1520 nM | 292 nM
5 | Fc1cccc(-c2cccc3[nH]c(-c4n[nH]c5cnc(-c6cncc(CN7CCC(F)(F)C7)c6)cc45)cc23)c1 [Compound 26, 5-(5-((3,3-Difluoropyrrolidin-1-yl)methyl)pyridin-3-yl)-3-(4-(3-fluorophenyl)-1H-indol-2-yl)-1H-pyrazolo[3,4-c]pyridine] | 3090 nM | 1030 nM | 3950 nM | 92 nM
6 | CN(C)CCNc1cc(F)cc(-c2cccc3[nH]c(-c4n[nH]c5cnc(-c6cncc(NC(=O)C7CC7)c6)cc45)cc23)c1 [Compound 468, N-(5-(3-(4-(3-((2-(Dimethylamino)ethyl)amino)-5-fluorophenyl)-1H-indol-2-yl)-1H-pyrazolo[3,4-c]pyridin-5-yl)pyridin-3-yl)cyclopropanecarboxamide] | 866 nM | 1310 nM | 1980 nM | 3510 nM

The next compounds have a lower EC50 (IL-6 (THP-1 cells)) than those just listed; values first:

Row | EC50 (IL-6 (THP-1 cells)) | EC50 [2] | EC50 (SW480 colon cancer cells) | SMILES | EC50 [1]
7 | 481 nM | 253 nM | 882 nM | CS(=O)(=O)NCc1cc(F)cc(-c2cccc3[nH]c(-c4n[nH]c5cnc(-c6cncc(CN7CCC(F)(F)C7)c6)cc45)cc23)c1 [Compound 502, N-(3-(2-(5-(5-((3,3-Difluoropyrrolidin-1-yl)methyl)pyridin-3-yl)-1H-pyrazolo[3,4-c]pyridin-3-yl)-1H-indol-4-yl)-5-fluorobenzyl)methanesulfonamide] | 28 nM
8 | 200 nM | 154 nM | 1270 nM | CC(C)CC(=O)Nc1cncc(-c2cc3c(-c4cc5ccccc5[nH]4)n[nH]c3cn2)c1 [Compound 254, N-(5-(3-(1H-Indol-2-yl)-1H-pyrazolo[3,4-c]pyridin-5-yl)pyridin-3-yl)-3-methylbutanamide] | 139 nM
9 | 56 nM | 185 nM | 2250 nM | c1cncc(-c2cc3c(-c4cc5ccccc5[nH]4)n[nH]c3cn2)c1 [Compound 256, 3-(1H-Indol-2-yl)-5-(pyridin-3-yl)-1H-pyrazolo[3,4-c]pyridine] | 51 nM
10 | 167 nM | 553 nM | 1080 nM | CCNCc1cncc(-c2cc3c(-c4cc5c(N6CCCCC6)cccc5[nH]4)n[nH]c3cn2)c1 [Compound 174, N-((5-(3-(4-(Piperidin-1-yl)-1H-indol-2-yl)-1H-pyrazolo[3,4-c]pyridin-5-yl)pyridin-3-yl)methyl)ethanamine] | 650 nM
11 | 353 nM | 171 nM | 1430 nM | c1cnc2cc(-c3n[nH]c4cnc(-c5cncc(OC6CCCCC6)c5)cc34)[nH]c2c1 [Compound 1025, 5-(5-(Cyclohexyloxy)pyridin-3-yl)-3-(1H-pyrrolo[3,2-b]pyridin-2-yl)-1H-pyrazolo[3,4-c]pyridine] | 584 nM
